Reference: patent US10383865B2, “Pharmaceutical combination composition comprising complex formulations of Ivacaftor and Lumacaftor and their salts and derivatives, process for their preparation thereof and pharmaceutical compositions containing them” (Druggability Technologies IP Holdco Limited, priority 2016, dated 2019)
Several values for one entry are separate records, joined by “and”; a condition that tells them apart may be missing. Identical values can stand only once. Like-named read-outs stand apart in the source and are kept apart here. Each block holds one molecule with its values, some of them ahead of it.

What was measured:
CYP3A = conditions: in-vitro and clinical studies; cited from earlier work
[1] = cited from earlier work; for share of the total dose eliminated as this metabolite: oral administration of Ivacaftor
[2] = cited from earlier work
[3] = cited from earlier work; for median (range) tmax: multiple oral dose of Ivacaftor in combination with Lumacaftor, fed state; for exposure with fat-containing foods relative to fasting state: single dose of Lumacaftor/Ivacaftor
[4] = tested on: plasma proteins, primarily albumin; conditions: cited from earlier work
[5] = cited from earlier work; remark: listed apart in the source
[6] = tested on: colorectal adenocarcinoma (Caco-2) cell system; conditions: cited from earlier work
CFTR protein = CFTR protein (Homo sapiens, UniProt P13569); conditions: major human metabolites of Ivacaftor; cited from earlier work
Sequence of CFTR protein (P13569 whole entry): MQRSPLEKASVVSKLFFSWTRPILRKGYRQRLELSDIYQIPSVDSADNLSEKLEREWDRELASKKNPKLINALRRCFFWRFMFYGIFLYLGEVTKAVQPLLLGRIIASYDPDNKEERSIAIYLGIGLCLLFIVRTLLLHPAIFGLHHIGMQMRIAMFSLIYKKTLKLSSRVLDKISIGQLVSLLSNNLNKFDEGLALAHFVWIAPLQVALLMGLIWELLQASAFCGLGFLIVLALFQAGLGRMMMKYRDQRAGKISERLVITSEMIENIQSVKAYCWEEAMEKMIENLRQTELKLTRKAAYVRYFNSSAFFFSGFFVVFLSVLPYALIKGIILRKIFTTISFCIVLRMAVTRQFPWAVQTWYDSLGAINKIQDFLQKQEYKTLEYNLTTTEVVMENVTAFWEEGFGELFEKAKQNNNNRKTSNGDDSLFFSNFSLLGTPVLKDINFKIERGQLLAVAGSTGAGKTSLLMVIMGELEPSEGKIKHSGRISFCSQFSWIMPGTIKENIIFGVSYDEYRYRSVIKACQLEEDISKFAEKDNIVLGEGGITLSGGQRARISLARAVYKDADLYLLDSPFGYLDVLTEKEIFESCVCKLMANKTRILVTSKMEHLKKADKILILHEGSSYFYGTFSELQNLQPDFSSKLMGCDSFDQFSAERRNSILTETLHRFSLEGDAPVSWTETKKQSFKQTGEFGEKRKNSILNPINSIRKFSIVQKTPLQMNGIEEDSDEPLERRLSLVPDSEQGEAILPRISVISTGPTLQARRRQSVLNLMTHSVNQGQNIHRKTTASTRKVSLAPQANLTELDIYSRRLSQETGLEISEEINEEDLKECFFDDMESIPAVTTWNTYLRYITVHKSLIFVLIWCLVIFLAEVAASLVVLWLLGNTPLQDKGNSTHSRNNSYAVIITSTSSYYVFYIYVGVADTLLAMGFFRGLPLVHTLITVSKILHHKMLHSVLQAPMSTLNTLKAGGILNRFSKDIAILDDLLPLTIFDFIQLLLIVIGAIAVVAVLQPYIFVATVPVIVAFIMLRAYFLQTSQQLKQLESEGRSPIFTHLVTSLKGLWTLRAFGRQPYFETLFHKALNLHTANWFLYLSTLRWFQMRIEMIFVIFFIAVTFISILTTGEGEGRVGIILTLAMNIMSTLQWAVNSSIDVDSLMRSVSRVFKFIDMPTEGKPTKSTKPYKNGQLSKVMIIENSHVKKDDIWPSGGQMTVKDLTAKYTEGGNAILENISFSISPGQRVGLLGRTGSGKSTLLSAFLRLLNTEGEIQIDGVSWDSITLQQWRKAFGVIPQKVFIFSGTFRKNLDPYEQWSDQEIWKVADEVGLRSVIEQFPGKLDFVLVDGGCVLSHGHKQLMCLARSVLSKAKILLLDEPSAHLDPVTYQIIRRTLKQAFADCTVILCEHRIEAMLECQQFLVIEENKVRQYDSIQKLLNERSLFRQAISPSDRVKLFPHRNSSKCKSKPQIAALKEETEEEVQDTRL

[7] = Gastro-intestinal tract simulated dissolution test (fasted/FaSSIF and fed/FeSSIF); format: physicochemical; conditions: for increase of Ivacaftor dissolution / apparent solubility in FeSSIF condition: FeSSIF vs FaSSIF
Experimental: Gastro-intestinal tract simulated drug dissolution tests were performed by dispersing the blended pharmaceutical combination composition described above in purified water. The dispersion contained 1 mg/mL Lumacaftor and 0.625 mg/mL Ivacaftor (identical mixture to ORKAMBI®). After 30 minutes holding time, simulated gastric fluid (SGF V2) was added to dispersion in order to set-up the pH to 1.6 (fasted state simulation) or FeSSIF buffer to increase the pH to 5.8 (fed state simulation). After 60 minutes holding time, the pH of the fasted state simulated dispersion was set-up to pH=6.5 adding maleic acid solution. FaSSIF solution was also added to the dispersion to ensure the fasted condition in the intestine simulation. In case of fed state simulation FeSSIF solution was added to the dispersion.
The dissolved amount of Lumacaftor and Ivacaftor from the blended pharmaceutical combination composition was measured by RP-HPLC after filtration with 0.1 μm pore size filter at different time points. Dissolution of Ivacaftor and Lumacaftor from the blended and granulated complex formulation was instantaneous, within 5 minutes more than 85% of the Ivacaftor and Lumacaftor dissolved from the pharmaceutical composition of present invention both in fasted and fed state simulated condition. (FIG. 3).

[8] = Redispersibility / DLS particle size of ball milled formulations; format: physicochemical; conditions: after ball milling and lyophilization
Experimental: Ivacaftor was ball milled in the presence of the excipients used for the preparation of solid dispersion. Crystalline Lumacaftor was ball milled in the absence of complexation agent (Luviscol VA64) and pharmaceutically acceptable excipient (SDS) and in the presence of them. Ball milling parameters were the following: • Speed: 500 rpm • Milling time: 1 hour • Number of the balls: 25 pcs with 10 mm diameter • Milling vessel's material: […] • Quantity of the milled samples: 100 mg API equivalent mass in 12 mL Milli-Q water
After the milling, the vessel was washed out with 5 mL Milli-Q water. The products were frozen on salted ice and then it was lyophilized using a freeze-drier equipped with −110° C. ice condenser, with a vacuum pump. The material and in-vitro properties of the resulted formulations were compared to the complex Lumacaftor and Ivacaftor formulations.
Particle size of the formulations was measured by DLS technique in reconstituted dispersion/solution.

[9] = Comparative apparent solubility test (100 nm filtration, UV-VIS or RP-HPLC); format: physicochemical; conditions: ultrapurified water, thermodynamic from solid, FIG. 17, read-out: comparative apparent solubility of Ivacaftor formulations
Experimental: The apparent solubility was measured by UV-VIS spectroscopy or RP-HPLC at room temperature. The samples were dispersed in ultrapurified water in 1-20 mg/mL active ingredient equivalent concentration range. The resulting solutions were filtered by 100 nm disposable syringe filter. The active ingredient content in the filtrate was measured by UV-Vis spectrophotometry or RP-HPLC and the apparent solubility was calculated. The filtrate may contain particles which could not be filtrated out using 100 nm pore size filter.

[10] = single 150 mg oral dose, healthy volunteers, fed state

Compound: CC(C)(C)c1cc(C(C)(C)C)c(NC(=O)c2c[nH]c3ccccc3c2=O)cc1O [Ivacaftor, N-(2,4-di-tert-butyl-5-hydroxyphenyl)-1,4-dihydro-4oxoquinoline-3-carboxamide]
main metabolic route (CYP3A): primarily metabolized by CYP3A
apparent volume of distribution, mean (±SD) ([1]; 150 mg every 12 hours for 7 days, healthy volunteers, fed state): 353 (122) L
accumulation ratio ([1]; every 12-hour dosing): 2.2 to 2.9
time to steady-state plasma concentrations ([1]; every 12-hour dosing): 3 to 5 days
median (range) tmax ([1]; fed state): approximately 4.0 (3.0; 6.0) hours
increase of exposure when given with food containing fat (food effect) ([1]; humans, fed vs fasted): 2-to 4 fold and 2-4 fold
fraction of dose eliminated in the feces after metabolic conversion ([1]; oral administration): 87.8%
urinary excretion as unchanged parent ([1]; oral administration): negligible
AUC, mean (±SD) [1, 10]: 10,600 (5260) ng*hr/mL
Cmax, mean (±SD) [1, 10]: 768 (233) ng/mL
time of peak plasma concentrations (tmax) [1, 10]: approximately 4 hours
apparent terminal half-life ([1]; single dose): approximately 12 hours
solubility in water ([2]; water): < 0.05 microgram/mL
median (range) tmax [3]: approximately 4.0 hours
exposure with fat-containing foods relative to fasting state [3]: approximately 3 times

Compound: Cc1ccc(NC(=O)C2(c3ccc4c(c3)OC(F)(F)O4)CC2)nc1-c1cccc(C(=O)O)c1 [Lumacaftor]
bound to plasma proteins [4]: approximately 99%
apparent volume of distribution, mean (±SD) ([5]; 200 mg every 24 hours for 28 days, CF patients, fed state): 86.0 (69.8) L
total radioactivity recovered in the urine ([5]; Lumacaftor and its metabolites): 8.6%
median (range) time of the maximum concentration (tmax) ([5]; fed state): approximately 4.0 (2.0, 9.0) hours
increase of exposure when given with fat containing food ([5]; fed vs fasted): 1.6-to 2.0 fold
excreted unchanged in the feces ([5]; humans): 51%
main metabolic route ([5]; in-vitro and in vivo data): mainly metabolized via oxidation and glucuronidation
recovered in urine as unchanged parent ([5]; of total radioactivity): 0.18%
half-life ([5]; patients with CF): approximately 26 hours
solubility ([2]; water and buffer solutions of pH 1.0 to pH 8.0): practically insoluble
permeability in Caco-2 cell system [6]: high permeability
median (range) tmax [3]: approximately 4.0 hours
exposure with fat-containing foods relative to fasting state [3]: approximately 2 times

Compound: CC(C)(C)c1cc(C(C)(C)CO)c(O)cc1NC(=O)c1c[nH]c2ccccc2c1=O [M1]
share of the total dose eliminated as this metabolite [1]: 22%
potency relative to Ivacaftor (CFTR protein): approximately one-sixth

Compound: CC(C)(C)c1cc(C(C)(C)C(=O)O)c(O)cc1NC(=O)c1c[nH]c2ccccc2c1=O [M6]
share of the total dose eliminated as this metabolite [1]: 43%
potency relative to Ivacaftor (CFTR protein): less than one-fiftieth

increase of Ivacaftor dissolution / apparent solubility in FeSSIF condition [7]: 3 fold
Compound: CC(C)(C)c1cc(C(C)(C)C)c(NC(=O)c2c[nH]c3ccccc3c2=O)cc1O [ball milled crystalline Ivacaftor]

redispersibility in purified water [8]: hardly redispersible
Compound: Cc1ccc(NC(=O)C2(c3ccc4c(c3)OC(F)(F)O4)CC2)nc1-c1cccc(C(=O)O)c1 [ball milled crystalline Lumacaftor]

increase of Ivacaftor dissolution / apparent solubility in FeSSIF condition [7]: 5 fold
solubility [9]: < 100 µg/mL
Compound: CC(C)(C)c1cc(C(C)(C)C)c(NC(=O)c2c[nH]c3ccccc3c2=O)cc1O [crystalline Ivacaftor]

apparent solubility of Lumacaftor ([7]; both in FaSSIF and FeSSIF media): below 10%
Compound: Cc1ccc(NC(=O)C2(c3ccc4c(c3)OC(F)(F)O4)CC2)nc1-c1cccc(C(=O)O)c1 [crystalline Lumacaftor]
